Reference: ChEMBL document CHEMBL4177579, “Eudesmane sesquiterpenes from Chinese liverwort are substrates of Cdrs and display antifungal activity by targeting Erg6 and Erg11 of Candida albicans” (Bioorg Med Chem, 2017)
In brackets after ≈: the same amount, converted by molar mass.

Legend:
[1] = test system: Candida albicans; assay: Antifungal activity against Candida albicans SC5314 incubated for 48 hrs by alamar blue assay; assay type: functional; settings: SC5314, 48 h
[2] = test system: Candida albicans; assay: Antifungal activity against CDR1 deficient Candida albicans DSY448 incubated for 48 hrs by alamar blue assay; assay type: functional; settings: DSY448, 48 h
[3] = test system: Candida albicans; assay: Antifungal activity against MDR1 deficient Candida albicans DSY465 incubated for 48 hrs by alamar blue assay; assay type: functional; settings: DSY465, 48 h
[4] = test system: Candida albicans; assay: Antifungal activity against CDR2 deficient Candida albicans DSY653 incubated for 48 hrs by alamar blue assay; assay type: functional; settings: DSY653, 48 h
[5] = test system: Candida albicans; assay: Antifungal activity against CDR1 and CDR2 deficient Candida albicans DSY654 incubated for 48 hrs by alamar blue assay; assay type: functional; settings: DSY654, 48 h
[6] = test system: Candida albicans; assay: Inhibition of the yeast-to-hyphal transition in CDR1 and CDR2 deficient Candida albicans DSY654 incubated for 5 days grown in liquid RPMI 1640 medium by microphotography; assay type: functional, organism-based
[7] = test system: Candida albicans; assay: Inhibition of the yeast-to-hyphal transition in CDR1 and CDR2 deficient Candida albicans DSY654 incubated for 5 days grown in solid SD medium by microphotography; assay type: functional, organism-based
[8] = test system: Candida albicans; assay: Drug accumulation in CDR1 and CDR2 deficient Candida albicans DSY654 at 16 ug/ml incubated for 10 hrs by HPLC method relative to wild type Candida albicans SC5314; assay type: ADME, organism-based; settings: in vivo
[9] = test system: Candida albicans; assay: Drug accumulation in Candida albicans SC5314 at 16 ug/ml incubated for 10 hrs in presence of 16 ug/ml CDR inhibitor RD by HPLC method relative to untreated control; assay type: ADME, organism-based; settings: in vivo
[10] = test system: Candida albicans; assay: Inhibition of ERG6/ERG11 in CDR1 and CDR2 deficient Candida albicans DSY654 assessed as induction of alteration in sterol composition by measuring ergosterol level at 16 ug/ml incubated for 10 hrs by GC-MS method (reference value: 55.60 +/- 0.29%); set-up: scale not given: the % may be the effect or the level left
[11] = test system: Candida albicans; assay: Inhibition of ERG6/ERG11 in CDR1 and CDR2 deficient Candida albicans DSY654 assessed as induction of alteration in sterol composition by measuring zymosterol level at 16 ug/ml incubated for 10 hrs by GC-MS method (reference value: 2.78 +/- 0.53%); set-up: scale not given: the % may be the effect or the level left
[12] = test system: Candida albicans; assay: Inhibition of ERG6/ERG11 in CDR1 and CDR2 deficient Candida albicans DSY654 assessed as induction of alteration in sterol composition by measuring fecosterol level at 16 ug/ml incubated for 10 hrs by GC-MS method (reference value: 8.36 +/- 0.3%); set-up: scale not given: the % may be the effect or the level left
[13] = test system: Candida albicans; assay: Inhibition of ERG6/ERG11 in CDR1 and CDR2 deficient Candida albicans DSY654 assessed as induction of alteration in sterol composition by measuring lanosterol level at 16 ug/ml incubated for 10 hrs by GC-MS method (reference value: 1.63 +/- 0.28%); set-up: scale not given: the % may be the effect or the level left
[14] = test system: Candida albicans; assay: Inhibition of ERG6/ERG11 in CDR1 and CDR2 deficient Candida albicans DSY654 assessed as feedback mechanism based up-regulation of ERG6 mRNA expression at 16 ug/ml incubated for 10 hrs by qPCR method relative to untreated control
[15] = test system: Candida albicans; assay: Inhibition of ERG6/ERG11 in CDR1 and CDR2 deficient Candida albicans DSY654 assessed as feedback mechanism based up-regulation of ERG11 mRNA expression at 16 ug/ml incubated for 10 hrs by qPCR method relative to untreated control

MIC80 [1]	MIC80 [2]	MIC80 [3]	MIC80 [4]	MIC80 [5]	fold change (FC) [8]	fold change (FC) [9]	Activity [10]	Activity [11]	Activity [12]	Activity [13]	fold change (FC) [14]	fold change (FC) [15]	SMILES	inhibition [6]	inhibition [7]
> 128 µg/mL	> 128 µg/mL	> 128 µg/mL	> 128 µg/mL	64 µg/mL (≈ 290 µM)									C=C1CCC[C@@]2(C)C[C@H](O)[C@H](C(=C)C)C[C@H]12		
> 128 µg/mL	> 128 µg/mL	> 128 µg/mL	> 128 µg/mL	> 128 µg/mL									CC1(C)C[C@H](O)C[C@@]2(C)OC(=O)C=C12 [LOLIOLIDE]		
> 128 µg/mL	> 128 µg/mL	> 128 µg/mL	> 128 µg/mL	32 µg/mL (≈ 128 µM)									C=C1CCC[C@@]2(C)C[C@@H]3OC(=O)[C@@](C)(O)[C@@H]3C[C@H]12		
> 128 µg/mL	> 128 µg/mL	> 128 µg/mL	> 128 µg/mL	> 128 µg/mL									CC1=CC(=O)C[C@@]2(C)CC[C@](O)(C(C)C)C[C@H]12		
> 128 µg/mL	> 128 µg/mL	> 128 µg/mL	> 128 µg/mL	> 128 µg/mL									C=C1CCC[C@@]2(C)C[C@@H]3OC(=O)[C@@H](C)[C@@H]3C[C@H]12		
> 128 µg/mL	> 128 µg/mL	> 128 µg/mL	> 128 µg/mL	> 128 µg/mL									C=C(C)[C@@H]1C[C@@]2(C(C)=O)C[C@@H](O)C[C@@]2(C)C[C@@H]1O		
> 128 µg/mL	> 128 µg/mL	> 128 µg/mL	> 128 µg/mL	16 µg/mL (≈ 68.9 µM)	4.95	10.4	33.7%	10.8%	6.16%	17.2%	9.3	2.7	C=C1CCC[C@@]2(C)C[C@@H]3OC(=O)C(=C)[C@@H]3C[C@H]12	Dose-dependent effect	Dose-dependent effect
> 128 µg/mL	> 128 µg/mL	> 128 µg/mL	> 128 µg/mL	> 128 µg/mL									C=C1CCC[C@@]2(C)C[C@@H]3OC(=O)[C@]4(CO4)[C@@H]3C[C@H]12		
> 128 µg/mL	> 128 µg/mL	> 128 µg/mL	> 128 µg/mL	64 µg/mL (≈ 271 µM)									C=C(CO)[C@H]1CC[C@]2(C)CCCC(=C)[C@H]2[C@H]1O		
> 128 µg/mL	> 128 µg/mL	> 128 µg/mL	> 128 µg/mL	> 128 µg/mL									CC1=CCC[C@@]2(C)C[C@@H]3OC(=O)[C@H](C)[C@@H]3C[C@H]12		
> 128 µg/mL	> 128 µg/mL	> 128 µg/mL	> 128 µg/mL	64 µg/mL (≈ 258 µM)									C=C1CCC[C@@]2(C)C[C@@]3(O)OC(=O)C(C)=C3C[C@H]12		
> 128 µg/mL	> 128 µg/mL	> 128 µg/mL	> 128 µg/mL	> 128 µg/mL									C=C1CCC[C@@]2(C)C[C@@H]3OC(=O)[C@](CO)(OCC)[C@@H]3C[C@H]12		
